Experimental data reported in patent publication US5728709A, “Alkyl and aralkyl-substituted pyrrolocarbazole derivatives that stimulate platelet production” (Kyowa Hakko Kogyo Co., Ltd., priority 1995, dated 1998).
Read-outs that look alike come from different tables or passages of the source.

Tests used:
[1] = system: Megakaryocyte Colony Formation; assay: Megakaryocyte Colony Formation-Stimulating Activity; format: cell-based, Balb/c mouse; settings: IL-3 present, 7 days culture, relative to control (IL-3 alone) = 100
Description: An eight-week-old Balb/c mouse was killed. Its femurs and cervical vertebrae were taken out and both ends thereof were cut off. Bone marrow cells were collected from the pieces cut off from the femurs and cervical vertebrae using a syringe containing IMDM (430-2200EA manufactured by Gibco Co.), and blown into a test tube. The test tube was allowed to stand for 5 minutes, and the supernatant was collected with a pipet. Each of the test compounds at various concentrations was separately added to a separate reaction mixture corltaining the bone marrow cells (50,000 cells), bovine serum albumin (2%: A4508, manufactured by Sigma Co.), transferrin (600 μg/ml: 652202, manufactured by Boehringer Mannheim Co.), IL-3 (100 U/ml) , cholesterol (16 μg/ml: 036-0641, manufactured by Wako Co.) and agar (0.6%: 0142-02, manufactured by Difco Laboratories);Then, 1 ml each of the mixtures was put into a 35-mm dishes (manufactured by Lux Co.); and cultured at 37° C., 5% CO2, and relative humidity of not less than 95%, for 7 days. A control was prepared by adding IL-3 alone to the bone marrow cells. After the completion of the culturing, the resultant agar was dried by using filter paper (1001-055, manufactured by Whatman Co.), fixed with 2.5% glutaraldehyde, followed by acetylcholinesterase staining (ACHE staining).
ACHE staining was carried out according to the following method:
ACHE staining: To each sample was added a solution containing 0.67 mg/ml acetylthiocholine iodide, 2.94 mg/ml sodium citrate, 7.5 mg/ml copper (II) sulfate, and 1.65 mg/ml potassium ferricyanide. Then, the mixture was allowed to stand at room temperature in the dark for 4 to 6 hours.
A group of 4 or more megakaryocytes which were stained reddish brown was regarded as one colony, and the number of colonies per dish was calculated using a microscope.
The results are shown in Table 5 as values relative to the control. (In the table, the relative values were calculated on the basis of the control defined as 100).

Platelet Production = assay: Platelet Production-Stimulating Activity in Mice; format: in vivo; settings: Mus musculus, 360 h, male Balb/c mice, 15th day, control = 100, read-out: Ratio of increase (number of platelets, A/B×100); for response vs control in vivo at 50 mg/kg: 50 mg/kg i.p. once a day for 5 days
Description: A test compound was intraperitoneally (i. p.) or subcutaneously (s. c.) administered to 7-week-old male Balb/c mice once a day for consecutive 5 days (test group, 4 mice per group). A control group (4 mice per group) was administered only a solvent (5% Tween 80/water) alone. On the 15th day from the start of the administration, blood was collected from the fundus oculi vein of each mouse, and the number of platelets was counted with a micro counter (Model CC-180A, manufactured by Toa Iryo Denshi Co.). The rate (%) of increase in the number of platelets in the test group which had been administered test compounds over the control group was calculated according to the following formula to evaluate the effect of the test compound.
[Ratio of increase]=A/B×100
A: the number of platelets in the test group
B: the number of platelets in the control group

[2] = sc, free base, 10 mg/kg s.c. once a day for 5 days
[3] = sc, 10 mg/kg s.c. once a day for 5 days

O=C1c2c(-c3ccccc3[N+](=O)[O-])cc3[nH]c4ccccc4c3c2C(=O)N1Cc1ccccc1 [Compound 1]
Rel. Value (megakaryocyte colony formation, control defined as 100) ([1]; 1 nM): 147

Nc1ccccc1-c1cc2[nH]c3ccccc3c2c2c1C(=O)N(Cc1ccccc1)C2=O [Compound 5]
Rel. Value (megakaryocyte colony formation, control defined as 100) ([1]; 1 nM): 117
response vs control in vivo at 50 mg/kg (Platelet Production; ip): 111%

CN1C(=O)c2c(-c3ccccc3[N+](=O)[O-])cc3[nH]c4ccccc4c3c2C1=O [Compound 10]
Rel. Value (megakaryocyte colony formation, control defined as 100) ([1]; 1 nM): 120

CN1C(=O)c2c(-c3ccccc3N)cc3[nH]c4ccccc4c3c2C1=O [Compound 11]
Rel. Value (megakaryocyte colony formation, control defined as 100) ([1]; 10 nM): 128

CN1C(=O)c2c(-c3ccccc3N)cc3c(c2C1=O)c1ccccc1n3Cc1ccc(N)cc1 [Compound 17]
Rel. Value (megakaryocyte colony formation, control defined as 100) ([1]; 1 nM): 123

CN(C)CCCn1c2ccccc2c2c3c(c(-c4ccccc4[N+](=O)[O-])cc21)C(=O)N(C)C3=O [Compound 24]
Rel. Value (megakaryocyte colony formation, control defined as 100) ([1]; 1 nM): 125
response vs control in vivo at 10 mg/kg (Platelet Production; ip, 10 mg/kg i.p. once a day for 5 days): 125%

CN(C)CCCn1c2ccccc2c2c3c(c(-c4ccccc4N(C)C)cc21)C(=O)N(C)C3=O [Compound 26]
Rel. Value (megakaryocyte colony formation, control defined as 100) ([1]; 10 nM): 110

CN1C(=O)c2c(-c3ccccc3[N+](=O)[O-])cc3c(c2C1=O)c1ccccc1n3CCCCN1CCOCC1 [Compound 34]
Rel. Value (megakaryocyte colony formation, control defined as 100) ([1]; 0.1 nM): 114

CN(C)CCCn1c2ccccc2c2c3c(c(-c4ccccc4NCCN(C)C)cc21)C(=O)N(C)C3=O [Compound 36]
Rel. Value (megakaryocyte colony formation, control defined as 100) ([1]; 10 nM): 149

CN1C(=O)c2c(-c3ccccc3NCCO)cc3c(c2C1=O)c1ccccc1n3C [Compound 37]
Rel. Value (megakaryocyte colony formation, control defined as 100) ([1]; 1 nM): 130

CN(C)CCNc1ccccc1-c1cc2c(c3c1C(=O)N(C)C3=O)c1ccccc1n2C [Compound 40]
Rel. Value (megakaryocyte colony formation, control defined as 100) ([1]; 1 nM): 138
response vs control in vivo at 50 mg/kg (Platelet Production; ip): 174%

CN(C)CCCNc1ccccc1-c1cc2c(c3c1C(=O)N(C)C3=O)c1ccccc1n2C [Compound 51]
Rel. Value (megakaryocyte colony formation, control defined as 100) ([1]; 10 nM): 141

CN(C)CC(=O)Nc1ccccc1-c1cc2c(c3c1C(=O)N(C)C3=O)c1ccccc1n2C [Compound 56]
Rel. Value (megakaryocyte colony formation, control defined as 100) ([1]; 1 nM): 116

CCN(CC)CCC(=O)Nc1ccccc1-c1cc2c(c3c1C(=O)N(C)C3=O)c1ccccc1n2C [Compound 60]
Rel. Value (megakaryocyte colony formation, control defined as 100) ([1]; 1 nM): 110

CN(C)CCOc1ccccc1-c1cc2c(c3c1C(=O)N(C)C3=O)c1ccccc1n2C [Compound 66]
Rel. Value (megakaryocyte colony formation, control defined as 100) ([1]; 10 nM): 119
response vs control in vivo at 50 mg/kg (Platelet Production; ip): 206%

CN(C)CCNc1ccc([N+](=O)[O-])cc1-c1cc2c(c3c1C(=O)N(C)C3=O)c1ccccc1n2C [Compound 79]
response vs control in vivo at 25 mg/kg (Platelet Production; ip, 25 mg/kg i.p. once a day for 5 days): 180%

CN(C)CCNc1ccc(Br)cc1-c1cc2c(c3c1C(=O)N(C)C3=O)c1ccccc1n2C [Compound 82]
Rel. Value (megakaryocyte colony formation, control defined as 100) ([1]; 10 nM): 119

CN(C)CCn1c(=O)c2c(c3c(c4c5ccccc5n(C)c42)C(=O)N(C)C3=O)c2ccccc21 [Compound 93]
Rel. Value (megakaryocyte colony formation, control defined as 100) ([1]; 0.1 nM): 119
response vs control in vivo at 50 mg/kg (Platelet Production; ip): 176%

CC(CN(C)C)Oc1ccccc1-c1cc2c(c3c1C(=O)N(C)C3=O)c1ccccc1n2C (stereo not shown) [Compound 102]
Rel. Value (megakaryocyte colony formation, control defined as 100) ([1]; 1 nM): 142
response vs control in vivo at 10 mg/kg (Platelet Production; [2]): 123%

CN(C)CCOc1ccc(Br)cc1-c1cc2c(c3c1C(=O)N(C)C3=O)c1ccccc1n2C [Compound 130]
response vs control in vivo at 10 mg/kg (Platelet Production; [2]): 295%

CN(C)CCOc1ccc(OCc2ccccc2)cc1-c1cc2c(c3c1C(=O)N(C)C3=O)c1ccccc1n2C [Compound 147]
response vs control in vivo at 10 mg/kg (Platelet Production; [3]): 154%

CN(C)CCOc1ccc(C=O)cc1-c1cc2c(c3c1C(=O)N(C)C3=O)c1cc(Br)ccc1n2C [Compound 160]
Rel. Value (megakaryocyte colony formation, control defined as 100) ([1]; 10 nM): 120
response vs control in vivo at 10 mg/kg (Platelet Production; [3]): 117%

CN(C)CCOc1ccc(N(C)C)cc1-c1cc2c(c3c1C(=O)N(C)C3=O)c1ccccc1n2C [Compound 170]
Rel. Value (megakaryocyte colony formation, control defined as 100) ([1]; 1 nM): 125
response vs control in vivo at 10 mg/kg (Platelet Production; [3]): 138%

CN(C)CCOc1ccccc1-c1cc2c(c3c1C(=O)N(C)C3=O)c1cc(C=O)ccc1n2C [Compound 177]
Rel. Value (megakaryocyte colony formation, control defined as 100) ([1]; 10 nM): 120

CC(=O)c1ccc2c(c1)c1c3c(c(-c4ccccc4OCCN(C)C)cc1n2C)C(=O)N(C)C3=O [Compound 180]
response vs control in vivo at 10 mg/kg (Platelet Production; [3]): 189%

CN(C)CCOc1c(N)cccc1-c1cc2c(c3c1C(=O)N(C)C3=O)c1ccccc1n2C [Compound 203]
response vs control in vivo at 10 mg/kg (Platelet Production; [3]): 146%
